Publication PMC7600309, “Completing the Enalaprilat Excretion Pathway—Renal Handling by the Proximal Tubule” (Pharmaceutics, 2020)
Structures can show the parent of a compound that is named as a salt. One block for each compound: values may come before it. Non-standard residues stand in square brackets, D forms with d. Residues, ends and D or L forms follow the SMILES beside them. Sar = CNCC(=O)O

Tests used:
[1] = target: T1, URAT1 (Homo sapiens, UniProt Q96S37); assay: model substrate uptake vs control cells; assay type: cell-based
T1 construct: gene SLC22A12; NM_144585.3, baculovirus-transduced HEK293 cells
T1 sequence (Q96S37 1-553): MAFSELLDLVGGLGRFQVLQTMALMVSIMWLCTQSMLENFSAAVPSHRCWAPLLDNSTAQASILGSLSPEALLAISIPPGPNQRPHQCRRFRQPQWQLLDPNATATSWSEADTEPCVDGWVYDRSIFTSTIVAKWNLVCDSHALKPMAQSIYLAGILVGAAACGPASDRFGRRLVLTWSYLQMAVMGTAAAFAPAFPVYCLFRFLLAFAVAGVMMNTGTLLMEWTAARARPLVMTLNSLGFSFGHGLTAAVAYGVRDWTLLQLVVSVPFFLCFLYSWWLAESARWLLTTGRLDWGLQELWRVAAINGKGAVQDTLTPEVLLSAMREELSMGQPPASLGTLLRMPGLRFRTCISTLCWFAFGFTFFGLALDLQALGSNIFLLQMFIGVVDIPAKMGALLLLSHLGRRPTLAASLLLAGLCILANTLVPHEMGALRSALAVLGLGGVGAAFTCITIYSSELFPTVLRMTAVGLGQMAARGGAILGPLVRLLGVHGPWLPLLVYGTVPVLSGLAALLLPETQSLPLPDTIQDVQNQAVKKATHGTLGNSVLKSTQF

[2] = target: T2, OAT3 (Homo sapiens, UniProt Q8TCC7); assay: radiolabelled model substrate uptake ([…]); assay type: cell-based
T2 construct: gene SLC22A8; NM_004254.3, baculovirus-transduced HEK293 cells
T2 sequence (Q8TCC7 1-542): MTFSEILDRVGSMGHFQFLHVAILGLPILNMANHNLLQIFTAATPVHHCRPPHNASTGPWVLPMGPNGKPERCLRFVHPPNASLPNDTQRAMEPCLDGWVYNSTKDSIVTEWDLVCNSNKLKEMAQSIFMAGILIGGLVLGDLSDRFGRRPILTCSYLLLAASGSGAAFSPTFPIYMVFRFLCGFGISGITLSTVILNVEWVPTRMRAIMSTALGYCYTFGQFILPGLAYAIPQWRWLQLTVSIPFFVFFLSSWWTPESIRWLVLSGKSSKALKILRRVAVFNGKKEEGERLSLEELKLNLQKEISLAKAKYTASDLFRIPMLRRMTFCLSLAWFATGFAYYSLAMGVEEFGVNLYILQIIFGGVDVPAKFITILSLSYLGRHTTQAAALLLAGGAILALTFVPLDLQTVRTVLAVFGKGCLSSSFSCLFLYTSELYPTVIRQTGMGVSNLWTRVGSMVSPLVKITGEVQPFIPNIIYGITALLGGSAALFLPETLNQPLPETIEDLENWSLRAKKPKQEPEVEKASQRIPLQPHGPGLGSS

[3] = target: T3, PEPT2 (Homo sapiens, UniProt Q16348); assay: radiolabelled model substrate uptake vs control cells; assay type: cell-based
T3 construct: gene SLC15A2; NM_021082.3, baculovirus-transduced HEK293 cells
T3 sequence (Q16348 1-729): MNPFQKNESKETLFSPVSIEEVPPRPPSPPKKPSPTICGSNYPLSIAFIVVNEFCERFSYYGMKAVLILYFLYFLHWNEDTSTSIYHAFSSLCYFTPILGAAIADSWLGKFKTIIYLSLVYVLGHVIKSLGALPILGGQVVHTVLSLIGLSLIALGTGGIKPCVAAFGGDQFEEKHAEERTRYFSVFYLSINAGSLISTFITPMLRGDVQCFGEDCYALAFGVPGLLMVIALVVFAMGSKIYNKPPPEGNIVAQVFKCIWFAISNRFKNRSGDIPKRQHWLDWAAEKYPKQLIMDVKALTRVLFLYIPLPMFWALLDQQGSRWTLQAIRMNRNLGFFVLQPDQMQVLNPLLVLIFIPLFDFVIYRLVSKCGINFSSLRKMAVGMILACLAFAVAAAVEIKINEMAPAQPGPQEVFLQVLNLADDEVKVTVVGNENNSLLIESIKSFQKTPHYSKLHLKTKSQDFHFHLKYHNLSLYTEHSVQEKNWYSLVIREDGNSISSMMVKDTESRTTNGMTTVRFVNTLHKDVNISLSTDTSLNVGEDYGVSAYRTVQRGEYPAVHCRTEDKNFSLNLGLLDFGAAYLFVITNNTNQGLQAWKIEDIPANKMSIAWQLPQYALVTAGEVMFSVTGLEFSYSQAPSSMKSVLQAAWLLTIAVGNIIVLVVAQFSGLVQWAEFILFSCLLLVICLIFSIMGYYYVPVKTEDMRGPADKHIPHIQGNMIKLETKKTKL

[4] = target: T4, PEPT1 (Homo sapiens, UniProt P46059); assay: as above; assay type: cell-based
T4 construct: gene SLC15A1; NM_005073.3, baculovirus-transduced HEK293 cells
T4 sequence (P46059 1-708): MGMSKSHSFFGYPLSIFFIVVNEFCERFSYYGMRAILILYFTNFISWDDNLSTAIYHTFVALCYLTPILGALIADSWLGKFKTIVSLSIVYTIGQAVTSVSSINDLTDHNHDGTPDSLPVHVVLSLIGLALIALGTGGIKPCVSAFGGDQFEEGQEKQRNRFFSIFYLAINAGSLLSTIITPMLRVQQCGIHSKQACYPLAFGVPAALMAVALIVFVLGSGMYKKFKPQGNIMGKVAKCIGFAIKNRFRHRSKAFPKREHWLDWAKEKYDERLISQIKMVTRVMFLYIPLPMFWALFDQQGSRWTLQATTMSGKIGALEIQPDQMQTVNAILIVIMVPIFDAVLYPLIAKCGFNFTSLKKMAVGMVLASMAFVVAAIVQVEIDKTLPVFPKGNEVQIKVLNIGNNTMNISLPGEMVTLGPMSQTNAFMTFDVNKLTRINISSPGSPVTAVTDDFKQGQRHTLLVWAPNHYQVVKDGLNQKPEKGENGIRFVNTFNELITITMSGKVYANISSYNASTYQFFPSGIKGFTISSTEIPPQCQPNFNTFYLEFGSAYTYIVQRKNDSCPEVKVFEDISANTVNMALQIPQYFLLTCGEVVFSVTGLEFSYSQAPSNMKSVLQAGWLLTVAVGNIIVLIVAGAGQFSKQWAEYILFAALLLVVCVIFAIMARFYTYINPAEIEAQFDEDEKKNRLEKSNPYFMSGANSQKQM

[5] = target: T5, OCTN2 (Homo sapiens, UniProt O76082); assay: as above; assay type: cell-based
T5 construct: gene SLC22A5; NM_003060.3, baculovirus-transduced HEK293 cells
T5 sequence (O76082 1-557): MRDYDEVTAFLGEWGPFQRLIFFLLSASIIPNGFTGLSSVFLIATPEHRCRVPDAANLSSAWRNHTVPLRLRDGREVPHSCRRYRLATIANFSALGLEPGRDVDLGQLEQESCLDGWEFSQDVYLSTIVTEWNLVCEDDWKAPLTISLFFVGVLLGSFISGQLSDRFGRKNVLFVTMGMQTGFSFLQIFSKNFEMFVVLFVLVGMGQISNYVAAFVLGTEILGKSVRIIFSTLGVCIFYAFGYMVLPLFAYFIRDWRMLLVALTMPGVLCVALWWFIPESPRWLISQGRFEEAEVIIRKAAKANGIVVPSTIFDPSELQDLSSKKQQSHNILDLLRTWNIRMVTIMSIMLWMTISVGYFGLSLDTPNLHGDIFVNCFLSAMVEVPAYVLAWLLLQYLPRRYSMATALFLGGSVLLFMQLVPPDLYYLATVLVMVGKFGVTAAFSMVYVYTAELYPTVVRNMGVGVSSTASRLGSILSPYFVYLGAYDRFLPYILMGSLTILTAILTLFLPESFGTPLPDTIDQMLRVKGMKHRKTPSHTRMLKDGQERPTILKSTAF

[6] = target: T6, OCTN1 (Homo sapiens, UniProt Q9H015); assay: as above; assay type: cell-based
T6 construct: gene SLC22A4; NM_003059.2, baculovirus-transduced HEK293 cells
T6 sequence (Q9H015 1-551): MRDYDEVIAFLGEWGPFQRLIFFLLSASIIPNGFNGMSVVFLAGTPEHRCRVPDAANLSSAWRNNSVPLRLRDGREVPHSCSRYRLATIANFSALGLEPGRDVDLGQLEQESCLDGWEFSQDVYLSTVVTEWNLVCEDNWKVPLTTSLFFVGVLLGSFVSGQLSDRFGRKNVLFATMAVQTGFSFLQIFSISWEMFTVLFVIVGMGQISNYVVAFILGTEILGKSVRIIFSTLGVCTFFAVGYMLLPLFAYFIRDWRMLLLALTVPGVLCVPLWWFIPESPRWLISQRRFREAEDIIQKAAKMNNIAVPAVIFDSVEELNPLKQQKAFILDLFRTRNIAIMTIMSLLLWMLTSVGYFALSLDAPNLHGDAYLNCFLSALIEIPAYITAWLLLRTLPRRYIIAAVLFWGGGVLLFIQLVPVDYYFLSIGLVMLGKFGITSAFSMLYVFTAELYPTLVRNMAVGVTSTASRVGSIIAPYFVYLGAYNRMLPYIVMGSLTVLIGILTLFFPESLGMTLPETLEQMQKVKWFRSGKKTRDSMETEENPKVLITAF

[7] = target: T7, OAT2 (Homo sapiens, UniProt Q9Y694); assay: as above; assay type: cell-based
T7 construct: gene SLC22A7; NM_006672, baculovirus-transduced HEK293 cells
T7 sequence (Q9Y694 1-548): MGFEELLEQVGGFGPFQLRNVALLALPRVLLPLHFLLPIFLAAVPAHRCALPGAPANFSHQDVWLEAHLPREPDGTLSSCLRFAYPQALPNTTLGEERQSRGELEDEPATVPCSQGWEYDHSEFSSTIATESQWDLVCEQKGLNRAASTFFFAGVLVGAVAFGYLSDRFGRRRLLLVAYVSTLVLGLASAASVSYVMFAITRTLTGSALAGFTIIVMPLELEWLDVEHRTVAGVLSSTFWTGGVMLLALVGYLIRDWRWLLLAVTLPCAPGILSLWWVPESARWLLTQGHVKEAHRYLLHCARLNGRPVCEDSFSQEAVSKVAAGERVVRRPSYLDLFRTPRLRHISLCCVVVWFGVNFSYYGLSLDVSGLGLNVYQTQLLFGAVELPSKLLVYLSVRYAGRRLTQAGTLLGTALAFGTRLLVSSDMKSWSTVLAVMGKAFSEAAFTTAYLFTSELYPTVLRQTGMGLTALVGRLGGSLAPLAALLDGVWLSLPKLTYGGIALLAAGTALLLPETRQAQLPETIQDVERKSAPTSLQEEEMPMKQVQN

[8] = target: T8, OAT4 (Homo sapiens, UniProt Q9NSA0)
T8 construct: gene SLC22A11

[9] = target: T2, OAT3; assay: inhibition of [3H]-E1S uptake (Ki); LC-MS/MS uptake in OAT3-HEK293 cells (Km […]); assay type: cell-based

T8 sequence (Q9NSA0 whole entry): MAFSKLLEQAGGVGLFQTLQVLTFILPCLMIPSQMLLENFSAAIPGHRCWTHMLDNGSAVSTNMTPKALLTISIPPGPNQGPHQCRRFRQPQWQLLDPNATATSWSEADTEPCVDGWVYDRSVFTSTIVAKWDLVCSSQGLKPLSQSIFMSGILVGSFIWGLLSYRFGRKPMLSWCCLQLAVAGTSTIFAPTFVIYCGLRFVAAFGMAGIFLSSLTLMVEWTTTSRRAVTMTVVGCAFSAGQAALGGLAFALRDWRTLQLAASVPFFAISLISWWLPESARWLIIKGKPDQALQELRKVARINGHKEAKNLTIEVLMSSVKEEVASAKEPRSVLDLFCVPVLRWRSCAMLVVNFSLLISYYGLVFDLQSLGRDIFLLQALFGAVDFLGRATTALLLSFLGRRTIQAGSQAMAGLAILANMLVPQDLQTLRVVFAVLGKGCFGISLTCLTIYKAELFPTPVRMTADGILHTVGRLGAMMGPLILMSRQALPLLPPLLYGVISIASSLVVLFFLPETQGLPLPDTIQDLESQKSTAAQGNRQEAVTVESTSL

SMILES: O=c1[nH]c(=O)c2[nH]c(=O)[nH]c2[nH]1 [Urate]
model substrate uptake vs control cells [1]: OAT2, OAT4, PEPT1, PEPT2, URAT1, OCTN1, and OCTN2 all showed a significant transport ratio compared to control cells

SMILES: C[C@]12CC[C@@H]3c4ccc(OS(=O)(=O)O)cc4CC[C@H]3[C@@H]1CCC2=O [[^3H]-Estrone sulfate]
radiolabelled model substrate uptake (20 nM) [2]: Transport of [^3H]-E1S by OAT3 was determined in the presence of increasing enalaprilat concentrations

SMILES: CN(CC(=O)O)C(=O)CN [[^3H]-Glycyl-sarcosine] (H-Gly-[Sar]-OH)
radiolabelled model substrate uptake vs control cells [3]: OAT2, OAT4, PEPT1, PEPT2, URAT1, OCTN1, and OCTN2 all showed a significant transport ratio compared to control cells
radiolabelled model substrate uptake vs control cells [4]: OAT2, OAT4, PEPT1, PEPT2, URAT1, OCTN1, and OCTN2 all showed a significant transport ratio compared to control cells

SMILES: C[N+](C)(C)C[C@H](O)CC(=O)[O-] [[^14C]-Carnitine]
radiolabelled model substrate uptake vs control cells [5]: OAT2, OAT4, PEPT1, PEPT2, URAT1, OCTN1, and OCTN2 all showed a significant transport ratio compared to control cells
radiolabelled model substrate uptake vs control cells [6]: OAT2, OAT4, PEPT1, PEPT2, URAT1, OCTN1, and OCTN2 all showed a significant transport ratio compared to control cells

SMILES: Nc1ccc(C(=O)NCC(=O)O)cc1 [[^14C]-para-aminohippuric acid]
radiolabelled model substrate uptake vs control cells [7]: OAT2, OAT4, PEPT1, PEPT2, URAT1, OCTN1, and OCTN2 all showed a significant transport ratio compared to control cells

Km [8]: > 1000 µM
Ki [9]: 134 µM
SMILES: C[C@H](N[C@@H](CCc1ccccc1)C(=O)O)C(=O)N1CCC[C@H]1C(=O)O [enalaprilat]
